Reference: patent US9765075B2, “Substituted bridged urea analogs as sirtuin modulators” (GLAXOSMITHKLINE LLC, priority 2013, dated 2017)

Biological target: T1, SIRT1 (Homo sapiens, UniProt Q96EB6)
T1 sequence (Q96EB6 1-747): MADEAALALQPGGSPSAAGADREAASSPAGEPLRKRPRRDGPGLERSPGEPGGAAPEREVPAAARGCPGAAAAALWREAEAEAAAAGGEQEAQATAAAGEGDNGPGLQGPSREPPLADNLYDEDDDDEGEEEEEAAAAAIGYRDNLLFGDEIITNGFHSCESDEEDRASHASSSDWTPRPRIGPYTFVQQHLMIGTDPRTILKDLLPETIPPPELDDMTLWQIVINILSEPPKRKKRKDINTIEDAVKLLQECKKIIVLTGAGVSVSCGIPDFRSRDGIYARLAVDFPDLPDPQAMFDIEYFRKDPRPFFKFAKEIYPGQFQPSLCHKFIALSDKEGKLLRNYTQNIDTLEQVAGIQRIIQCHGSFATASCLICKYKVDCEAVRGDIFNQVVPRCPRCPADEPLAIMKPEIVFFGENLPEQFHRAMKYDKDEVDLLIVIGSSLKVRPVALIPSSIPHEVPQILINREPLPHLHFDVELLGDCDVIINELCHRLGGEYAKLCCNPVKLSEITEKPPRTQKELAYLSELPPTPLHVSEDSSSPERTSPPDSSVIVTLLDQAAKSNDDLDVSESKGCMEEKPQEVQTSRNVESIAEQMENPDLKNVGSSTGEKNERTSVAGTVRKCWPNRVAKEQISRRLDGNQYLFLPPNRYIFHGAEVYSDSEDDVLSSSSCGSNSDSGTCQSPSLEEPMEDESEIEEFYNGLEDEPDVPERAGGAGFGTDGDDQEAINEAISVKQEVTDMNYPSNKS
Assay: Trp mass spectrometry assay (SIRT1 activation)
Assay type: biochemical
Conditions: Trp peptide substrate; for Tryp AVG EC1.5 (μM): concentration of test compound that results in 150% activation of SIRT1; for Emax: percent maximum fold activation of SIRT1, read-out: Tryp % Fold Act
Procedure, shortened: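 N-His-tagged SIRT1 (10 nM), expressed in E. coli, was incubated with 0.5 μM Ac-RHKK(Ac)W-NH2 peptide and 120 μM NAD+ for 25 min at 25 °C in HEPES pH 7.5 with […]. The reaction was stopped with formic acid and O-acetyl-ADP-ribose or deacetylated peptide was quantified by mass spectrometry. Results are given as EC1.5 and percent maximal activation relative to DMSO control.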

Structure (SMILES) | Tryp AVG EC1.5 (μM) | Emax [%]
O=C(Nc1cncc(F)c1)N1c2nc(-c3cccnc3)ccc2N2CCC[C@H]1C2 [Example 453] | B (EC1.5 1-25 μM) | ≥ 150
O=C(Nc1cnccn1)N1c2nc(-c3cccnc3)ccc2N2CCC[C@H]1C2 [Example 454] | B (EC1.5 1-25 μM) | ≥ 150
O=C(Nc1cccnc1)N1c2nc(-c3cccnc3)ccc2N2CCC[C@H]1C2 [Example 455] | B (EC1.5 1-25 μM) | ≥ 150
O=C(Nc1ccncn1)N1c2nc(-c3cccnc3)ccc2N2CCC[C@H]1C2 [Example 456] | B (EC1.5 1-25 μM) | ≥ 150
O=C(Nc1cccnn1)N1c2nc(-c3cccnc3)ccc2N2CCC[C@H]1C2 [Example 457] | B (EC1.5 1-25 μM) | 
CN(C)c1ccc(-c2ccc3c(n2)N(C(=O)Nc2cnccn2)[C@H]2CCN3C2)cn1 [Example 458] | B (EC1.5 1-25 μM) | ≥ 150
N#Cc1cncc(-c2ccc3c(n2)N(C(=O)Nc2cnccn2)[C@H]2CCN3C2)c1 [Example 459] | A (EC1.5<1 μM) | ≥ 150
O=C(Nc1cncc(F)c1)N1c2nc(-c3cccc(C(F)(F)F)c3)ccc2S(=O)(=O)N2CC[C@H]1C2 [Example 460] | B (EC1.5 1-25 μM) | ≥ 150
O=C(Nc1cnccn1)N1c2nc(-c3ccc(Cl)c(Cl)c3)ccc2N2CC[C@H]1C2 [Example 461] | A (EC1.5<1 μM) | ≥ 150
O=C(Nc1cnccn1)N1c2nc(-c3ccnc(N4CC[C@@H](F)C4)c3)ccc2N2CC[C@H]1C2 [Example 462] | B (EC1.5 1-25 μM) | ≥ 150
O=C(Nc1ccc(F)cn1)N1c2nc(-c3ccnc(N4CC[C@H](F)C4)c3)ccc2N2CC[C@H]1C2 [Example 463] | A (EC1.5<1 μM) | ≥ 150
O=C(Nc1cncc(F)c1)N1c2nc(-c3ccnc(N4CC[C@@H](F)C4)c3)ccc2N2CC[C@H]1C2 [Example 464] | B (EC1.5 1-25 μM) | ≥ 150
Cc1ccc(-c2ccc3c(n2)N(C(=O)Nc2ccccn2)[C@H]2CCCN3C2)cn1 [Example 465] | B (EC1.5 1-25 μM) | ≥ 150
Cc1nc(NC(=O)N2c3nc(-c4cccnc4)ccc3N3CCC[C@H]2C3)sc1C [Example 466] | B (EC1.5 1-25 μM) | ≥ 150
Cc1ccc(-c2ccc3c(n2)N(C(=O)Nc2cccnn2)[C@H]2CCCN3C2)cn1 [Example 467] | B (EC1.5 1-25 μM) | ≥ 150
Cc1cc(-c2ccc3c(n2)N(C(=O)Nc2ccncn2)[C@H]2CCN3C2)ccn1 [Example 468] | B (EC1.5 1-25 μM) | ≥ 150
O=C(Nc1cncc(F)c1)N1c2nc(N3CC[C@H](F)C3)ccc2S(=O)(=O)N2CC[C@H]1C2 [Example 469] | C (EC1.5>25 μM) | < 150
O=C(Nc1ccccn1)N1c2nc(-c3cncc(F)c3)ccc2N2CCC[C@H]1C2 [Example 470] | A (EC1.5<1 μM) | ≥ 150
Cc1nc(NC(=O)N2c3nc(-c4cncc(F)c4)ccc3N3CCC[C@H]2C3)sc1C [Example 471] | B (EC1.5 1-25 μM) | ≥ 150
O=C(Nc1cnccn1)N1c2nc(-c3cccc(C(F)(F)F)c3)ccc2N2CCC1CC2 [Example 472] | A (EC1.5<1 μM) | ≥ 150
O=C(Nc1cccc(-c2cnco2)c1)N1c2nc(-c3cccc(C(F)(F)F)c3)ccc2N2CCC1CC2 [Example 473] | A (EC1.5<1 μM) | ≥ 150
O=C(Nc1ccc(F)cn1)N1c2nc(-c3ccnc(N4CC[C@@H](F)C4)c3)ccc2N2CC[C@H]1C2 [Example 474] | A (EC1.5<1 μM) | ≥ 150

The remaining lines, values ahead:

Tryp AVG EC1.5 (μM) | Emax [%] | Structure (SMILES)
A (EC1.5<1 μM) | ≥ 150 | O=C(Nc1cncc(F)c1)N1c2nc(-c3ccnc(N4CC[C@H](F)C4)c3)ccc2N2CC[C@H]1C2 [Example 475]
B (EC1.5 1-25 μM) | ≥ 150 | Cc1nc(NC(=O)N2c3nc(-c4ccccc4C#N)ccc3N3CCC[C@H]2C3)sc1C [Example 476]
B (EC1.5 1-25 μM) | ≥ 150 | Cc1ccc(-c2ccc3c(n2)N(C(=O)Nc2cncc(F)c2)[C@H]2CCCN3C2)cn1 [Example 477]
B (EC1.5 1-25 μM) | ≥ 150 | COc1cc(NC(=O)N2c3nc(-c4ccc(C)nc4)ccc3N3CCC[C@H]2C3)ncn1 [Example 478]
B (EC1.5 1-25 μM) | ≥ 150 | Cc1ccc(-c2ccc3c(n2)N(C(=O)Nc2ccncn2)[C@H]2CCCN3C2)cn1 [Example 479]
A (EC1.5<1 μM) | ≥ 150 | Cc1cc(-c2ccc3c(n2)N(C(=O)Nc2cccc(-c4cnco4)c2)[C@H]2CCN3C2)ccn1 [Example 480]
A (EC1.5<1 μM) | ≥ 150 | Cc1cc(-c2ccc3c(n2)N(C(=O)Nc2nc(C)c(C)s2)[C@H]2CCN3C2)ccn1 [Example 481]
B (EC1.5 1-25 μM) | ≥ 150 | Cc1cc(-c2ccc3c(n2)N(C(=O)Nc2cnn(C)c2)[C@H]2CCN3C2)ccn1 [Example 482]
A (EC1.5<1 μM) | ≥ 150 | Cc1cc(-c2ccc3c(n2)N(C(=O)Nc2ccc4cn(C)cc4c2)[C@H]2CCN3C2)ccn1 [Example 483]
C (EC1.5>25 μM) | < 150 | CN1CCCN(c2ccc3c(n2)N(C(=O)Nc2ccncn2)[C@H]2CCCN3C2)CC1 [Example 484]
A (EC1.5<1 μM) | ≥ 150 | O=C(Nc1cccnc1)N1c2nc(-c3cccc(C(F)(F)F)c3)ccc2N2CCC1CC2 [Example 485]
C (EC1.5>25 μM) | ≥ 150 | Cc1nn(C)c(C)c1-c1ccc2c(n1)N(C(=O)Nc1cccnc1)[C@H]1CCN2C1 [Example 486]
B (EC1.5 1-25 μM) | ≥ 150 | CCCn1cc(-c2ccc3c(n2)N(C(=O)Nc2cccnc2)[C@H]2CCN3C2)cn1 [Example 487]
B (EC1.5 1-25 μM) | ≥ 150 | Cc1nn(C)cc1-c1ccc2c(n1)N(C(=O)Nc1cccnc1)[C@H]1CCN2C1 [Example 488]
B (EC1.5 1-25 μM) | ≥ 150 | Cc1c(-c2ccc3c(n2)N(C(=O)Nc2cccnc2)[C@H]2CCN3C2)cnn1C [Example 489]
B (EC1.5 1-25 μM) | ≥ 150 | Cc1[nH]ncc1-c1ccc2c(n1)N(C(=O)Nc1cccnc1)[C@H]1CCN2C1 [Example 490]
A (EC1.5<1 μM) | ≥ 150 | O=C(Nc1ccncn1)N1c2nc(N3CCCN(CC(F)(F)F)CC3)ccc2N2CCC[C@H]1C2 [Example 491]
A (EC1.5<1 μM) | ≥ 150 | O=C(Nc1cncc(F)c1)N1c2nc(-c3cccc(C(F)(F)F)c3)ccc2N2CCC1CC2 [Example 492]
B (EC1.5 1-25 μM) | ≥ 150 | O=C(Nc1cccnc1)N1c2nc(-c3cc[nH]n3)ccc2N2CC[C@H]1C2 [Example 493]
B (EC1.5 1-25 μM) | ≥ 150 | CC(C)n1cc(-c2ccc3c(n2)N(C(=O)Nc2cccnc2)[C@H]2CCN3C2)cn1 [Example 494]
B (EC1.5 1-25 μM) | ≥ 150 | Cc1nc(C)c(-c2ccc3c(n2)N(C(=O)Nc2cccnc2)[C@H]2CCN3C2)s1 [Example 495]
A (EC1.5<1 μM) | ≥ 150 | O=C(Nc1cccnc1)N1c2nc(-c3cccc(Cl)c3)ccc2N2CCC1CC2 [Example 496]
A (EC1.5<1 μM) | ≥ 150 | O=C(Nc1cccc(-c2cnco2)c1)N1c2nc(-c3cccc(Cl)c3)ccc2N2CCC1CC2 [Example 497]
A (EC1.5<1 μM) | ≥ 150 | Cc1cc(-c2ccc3c(n2)N(C(=O)Nc2cccnc2)[C@H]2CCN3C2)ccn1 [Example 498]
A (EC1.5<1 μM) | ≥ 150 | COc1cncc(NC(=O)N2c3nc(-c4ccnc(C)c4)ccc3N3CC[C@H]2C3)n1 [Example 499]
A (EC1.5<1 μM) | ≥ 150 | COc1cnc(NC(=O)N2c3nc(-c4ccnc(C)c4)ccc3N3CC[C@H]2C3)cn1 [Example 500]
B (EC1.5 1-25 μM) | ≥ 150 | COc1nccnc1NC(=O)N1c2nc(-c3ccnc(C)c3)ccc2N2CC[C@H]1C2 [Example 501]
A (EC1.5<1 μM) | ≥ 150 | Cc1cc(-c2ccc3c(n2)N(C(=O)Nc2ccc4c(cnn4C)c2)[C@H]2CCN3C2)ccn1 [Example 502]
